What all share (assay type): physicochemical
Series [1] is described as follows: Hygroscopicity after one month storage in closed containers. The note with it: after one month in closed containers at room temperature in atmospheric air (relative humidity ~50-80%). Further details: key: 1: non-hygroscopic, no visible change observed; 2: slightly hygroscopic, aggregation and lumping developed, loss of flowability; 3: hygroscopic, semi-solid material; 4: deliquescent, liquefied syrup-like product. The protocol: The hygroscopicity was determined after one month in closed containers at room temperature in atmospheric air (relative humidity ˜50-80%)
The observed samples could be divided into four groups in accordance to their hygroscopic properties:
1=non-hygroscopic, no visible change observed
2=slightly hygroscopic, aggregation and lumping developed, loss of flowability
3=hygroscopic, semi-solid material
4=deliquescent, liquefied syrup-like product

Series [2] is described as follows: Water content by thermal gravimetric analysis (TGA). The note with it: solid product. The protocol: (§1) Thermal gravimetric analysis (TGA) was applied for measuring amounts of volatiles (residual solvents and water) in the solid. Water content was measured by Karl Fischer method (KF).
Series [3] can be described thus: Water content by Karl Fischer method (KF). As to conditions: solid product. The protocol:
as §1

We go through one compound from patent US7547806B2, “Tannate salt of rasagiline” (Teva Pharmaceutical Industries, Ltd., priority 2006, dated 2009).

Where only a bound is given, the exact number is not on record here.

In turn, `C#CCN[C@@H]1CCc2ccccc21` [Rasagiline base, R(+)-N-propargyl-l-aminoindan] gave a Hygroscopicity in series [1] of 1. Also, in series [2], the “Water content, % By TGA” value was less than 0.1%. Also, the “Water content, % By KF” value in series [3] came out at 0.1%.
